Earlier results on 1 compound are cited in patent publication US4536335A, “Carbapenem antibiotics” (Bristol-Myers Company, priority 1983, dated 1985).

In this data set the test system is various Pseudomonas species. The conditions noted are these: prior art description; cited from earlier work.

Consider `C[C@@H](O)[C@H]1C(=O)N2C(C(=O)O)=C(SCCN)C[C@H]12` [Thienamycin, thienamycin], for which the “activity against various Pseudomonas species” value is “notable activity”.
